Reference: paper PMC7866225, “Microwave-Assisted Synthesis of (Piperidin-1-yl)quinolin-3-yl)methylene)hydrazinecarbothioamides as Potent Inhibitors of Cholinesterases: A Biochemical and In Silico Approach” (Molecules, 2021)
Several values for one entry are separate records, joined by “and”; a condition that tells them apart may be missing. Identical values can stand only once.

Legend:
[1] = molecular target: Butyrylcholinesterase (BChE) (Equus caballus, UniProt P81908); experiment: biochemical; details: Ellman's method, triplicate; read-out: Butyrylcholinesterse (BChE) IC50 ± SEM
Chain of Butyrylcholinesterase (BChE) (P81908 whole entry): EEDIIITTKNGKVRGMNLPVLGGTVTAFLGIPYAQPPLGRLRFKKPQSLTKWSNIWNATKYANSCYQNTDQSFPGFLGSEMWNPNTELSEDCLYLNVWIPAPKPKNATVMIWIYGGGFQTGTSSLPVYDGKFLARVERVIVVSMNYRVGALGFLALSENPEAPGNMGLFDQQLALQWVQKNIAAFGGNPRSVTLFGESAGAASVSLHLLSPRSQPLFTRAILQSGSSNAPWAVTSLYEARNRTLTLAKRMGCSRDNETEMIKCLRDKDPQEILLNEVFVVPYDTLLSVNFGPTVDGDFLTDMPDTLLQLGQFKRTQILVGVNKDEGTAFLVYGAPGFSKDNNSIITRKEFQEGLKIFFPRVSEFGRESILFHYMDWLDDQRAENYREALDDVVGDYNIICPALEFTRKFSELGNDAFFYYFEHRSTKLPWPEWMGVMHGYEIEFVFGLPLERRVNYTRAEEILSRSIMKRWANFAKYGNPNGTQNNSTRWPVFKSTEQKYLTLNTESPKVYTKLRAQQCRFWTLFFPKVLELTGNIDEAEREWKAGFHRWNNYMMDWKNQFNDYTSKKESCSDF
Procedure: (§1) Modified Ellman’s method was adopted to investigate the inhibitory potential of newly synthesized compounds against cholinesterase enzymes. The assay protocol involved 96-well plates (100 μL per well). Each well contained 20 μL of assay buffer solution, 10 μL of test sample, and 10 μL of 0.5 U/mg of AChE (for AChE inhibition assay) or 10 μL of 3.4 U/mg of BChE (for BChE inhibition assay). This mixture was incubated at 25 °C for 10 min followed by the addition of substrate (10 μL). For AChE inhibition assay, acetylthiocholine iodide (ATCI, 1 mM) while for BChE assay, butyrylthiocholine chloride (BTCCl, 1 mM), was added. This mixture was incubated for 15 min at 37 °C. Ellman reagent (5,5′-dithio-bis(2-nitrobenzoic acid), DTNB, 3 mM) was added. […] Blank assay was also performed. All the analyses were performed in triplicate. IC50 values were also calculated for the synthesized compounds in GraphPad prism 5.0. using nonlinear regression method.

[2] = molecular target: Acetylcholinesterase (AChE) (Electrophorus electricus, UniProt O42275); experiment: biochemical; details: Ellman's method, triplicate; read-out: Acetylcholinesterase (AChE) IC50 ± SEM
Chain of Acetylcholinesterase (AChE) (O42275 24-633): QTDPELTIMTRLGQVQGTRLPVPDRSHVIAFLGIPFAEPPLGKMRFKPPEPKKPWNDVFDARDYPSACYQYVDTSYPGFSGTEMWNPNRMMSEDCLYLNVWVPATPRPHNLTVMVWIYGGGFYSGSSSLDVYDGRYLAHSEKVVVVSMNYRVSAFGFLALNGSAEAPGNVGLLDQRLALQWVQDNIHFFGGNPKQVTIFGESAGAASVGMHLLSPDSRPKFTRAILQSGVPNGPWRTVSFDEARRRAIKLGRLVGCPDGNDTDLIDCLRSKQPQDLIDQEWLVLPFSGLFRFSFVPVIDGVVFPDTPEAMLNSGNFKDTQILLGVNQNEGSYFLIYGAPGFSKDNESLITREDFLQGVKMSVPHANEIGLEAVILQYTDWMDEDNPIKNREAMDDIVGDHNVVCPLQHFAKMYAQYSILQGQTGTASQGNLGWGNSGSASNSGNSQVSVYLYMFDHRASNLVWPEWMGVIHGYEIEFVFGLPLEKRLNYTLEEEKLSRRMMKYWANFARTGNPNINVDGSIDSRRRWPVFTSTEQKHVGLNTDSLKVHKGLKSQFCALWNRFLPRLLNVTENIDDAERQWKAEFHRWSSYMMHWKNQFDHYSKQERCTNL
Procedure: as §1

[3] = In vitro cytotoxicity, MTT assay; type: cell-based; details: human, HepG2 cells, 24 h, control = 100, read-out: Cell Viability; for viability at 24 h, 50 μg/mL: HepG2, 50 μg/mL; for viability at 24 h, 100 μg/mL: HepG2, 100 μg/mL; for viability at 24 h, 200 μg/mL: HepG2, 200 μg/mL; for viability at 24 h, 500 μg/mL: HepG2, 500 μg/mL; for viability at 24 h, 1000 μg/mL: HepG2, 1000 μg/mL
Procedure: (§2) HepG2 cell line was obtained from the cell culture laboratory established in The University of Lahore. These cell lines were preserved in cryo vials present in liquid nitrogen. Cryo vials were revived for further processing.
(§3) The cryo vials obtained from liquid nitrogen cylinder were thawed. Then HepG2 cells were cultured in the culturing flask in which DMEM-HG along with 10% fetal bovine serum (FBS), supplemented with […] (Sigma) and 100 U/mL streptomycin (Sigma) were added. Cultures were maintained in a humidified incubator supplied with 5% CO2 at 37 °C. Experiments were performed in triplicates. When cultured HepG2 cells achieved 70–80% confluence their subculturing was conducted. For splitting, the cells attached to the walls of the culturing flask were washed with 1× phosphate buffer saline (PBS) and incubated with 0.05% trypsin-EDTA until cells detached from the surface of culturing flask. The detachment of the cells was confirmed by observing the flask under the inverted microscope. A few drops of FBS were added to the flask and mixed well by stirring. The mixture was centrifuged at 2000 rpm for 5 min. After centrifugation the supernatant was removed, and pellet was resuspended. HepG2 cells were cultured onto 96-well plates for measurement of cell viability. Treatment was given for both compounds at a concentration of 0–1000 µg/mL for 24 h.
(§4) After 4 h formazan crystals were solubilized with 10% sodium dodecylsulphate (SDS) (Invitrogen Inc.) and absorbance was taken at 570 nm. Percentage viability was calculated according to the following formula:% Viable cells = ((abs sample − abs blank) / (abs control − abs blank)) × 100 (1) where abs stands for absorbance.

HepG2 cells = experiment: In vitro cytotoxicity, MTT assay; type: cell-based; details: for Status: HepG2, MTT, 0–1000 µg/mL, 24 h
Procedure: as §2, §3, §4

| SMILES | IC50 [1] | IC50 [2] | viability at 24 h, 50 μg/mL [3] [%] | viability at 24 h, 100 μg/mL [3] [%] | viability at 24 h, 200 μg/mL [3] [%] | viability at 24 h, 500 μg/mL [3] [%] | viability at 24 h, 1000 μg/mL [3] [%] | Status (HepG2 cells) | IC50 (HepG2 cells; HepG2, standard drug) [µg/mL] |
| --- | --- | --- | --- | --- | --- | --- | --- | --- | --- |
| Cc1ccc2nc(N3CCCCC3)c(C=NNC(=S)Nc3cccc(F)c3)cc2c1 [Compound 5i, N-(3-Fluorophenyl)-2-((6-methyl-2-(piperidin-1-yl)quinolin-3-yl)methylene)hydrazine carbothioamide] | 36.23 ± 0.02 µM | 24.1 ± 0.43 µM | 118 | 99.4 | 97.2 | 99.4 | 149 | Proliferative |  |
| Cc1ccc2nc(N3CCCCC3)c(C=NNC(=S)Nc3ccc(F)cc3)cc2c1 [Compound 5j, N-(4-Fluorophenyl)-2-((6-methyl-2-(piperidin-1-yl)quinolin-3-yl)methylene)hydrazine carbothioamide] | 42.4 ± 0.44 µM | 28.2 ± 0.94 µM | 93.4 | 98.1 | 107 | 138 | 166 | Proliferative |  |
| Cc1ccc2nc(N3CCCCC3)c(C=NNC(=S)Nc3ccccc3)cc2c1 [Compound 5b, 2-((6-Methyl-2-(piperidin-1-yl)quinolin-3-yl)methylene)-N-phenylhydrazinecarbothioamide] | 33.1 ± 0.09 µM | 25.1 ± 0.25 µM | 106 | 107 | 139 | 169 | 227 | Proliferative |  |
| Cc1cccc2cc(C=NNC(=S)Nc3ccccc3F)c(N3CCCCC3)nc12 [Compound 6h, N-(2-Fluorophenyl)-2-((8-methyl-2-(piperidin-1-yl)quinolin-3-yl)methylene)hydrazine carbothioamide] | 45.12 ± 0.19 µM | 40.23 ± 0.25 µM | 100 | 110 | 126 | 151 | 202 | Proliferative |  |
| Cc1ccc(NC(=S)NN=Cc2cc3cc(C)ccc3nc2N2CCCCC2)c(C)c1 [Compound 5c, N-(2,4-Dimethylphenyl)-2-((6-methyl-2-(piperidin-1-yl)quinolin-3-yl)methylene)hydrazine carbothioamide] | 37.2 ± 0.83 µM | 42.3 ± 0.99 µM | 105 | 109 | 122 | 188 | 262 | Proliferative |  |
| Cc1cccc2cc(C=NNC(N)=S)c(N3CCCCC3)nc12 [Compound 6a, 2-((8-Methyl-2-(piperidin-1-yl)quinolin-3-yl)methylene)hydrazinecarbothioamide] | 60.02 ± 0.04 µM | 36.25 ± 0.36 µM | 82.5 | 86.3 | 80.6 | 83.3 | 77.9 | Cytotoxic |  |
| Cc1cccc2cc(C=NNC(=S)NCc3ccccc3)c(N3CCCCC3)nc12 [Compound 6l, N-Benzyl-2-((8-methyl-2-(piperidin-1-yl)quinolin-3-yl)methylene)hydrazinecarbothioamide] | 41 ± 0.89 µM | 57.25 ± 0.03 µM | 103 | 105 | 107 | 138 | 157 | Proliferative |  |
| Cc1ccc(NC(=S)NN=Cc2cc3cccc(C)c3nc2N2CCCCC2)c(C)c1 [Compound 6c, N-(2,4-Dimethylphenyl)-2-((8-methyl-2-(piperidin-1-yl)quinolin-3-yl)methylene)hydrazine carbothioamide] | 24.59 ± 0.09 µM | 39.12 ± 0.27 µM | 87.5 | 116 | 154 | 187 | 233 | Proliferative |  |
| CCc1ccc(NC(=S)NN=Cc2cc3cccc(C)c3nc2N2CCCCC2)cc1 [Compound 6k, N-(4-Ethylphenyl)-2-((8-methyl-2-(piperidin-1-yl)quinolin-3-yl)methylene)hydrazine carbothioamide] | 32.01 ± 0.31 µM | 39.9 ± 0.85 µM | 103 | 105 | 107 | 138 | 157 | Proliferative |  |
| CCc1ccc(NC(=S)NN=Cc2cc3cc(C)ccc3nc2N2CCCCC2)cc1 [Compound 5k, N-(4-Ethylphenyl)-2-((6-methyl-2-(piperidin-1-yl)quinolin-3-yl)methylene)hydrazine carbothioamide] | 32 ± 0.87 µM | 30.6 ± 0.56 µM | 111 | 110 | 99.6 | 106 | 132 | Proliferative |  |
| Cc1ccc2nc(N3CCCCC3)c(C=NNC(N)=S)cc2c1 [Compound 5a, 2-((6-Methyl-2-(piperidin-1-yl)quinolin-3-yl)methylene)hydrazinecarbothioamide] | 35.3 ± 0.01 µM | 27.6 ± 0.08 µM | 95.4 | 88.9 | 92.8 | 95.8 | 102 | Non-cytotoxic |  |
| Cc1ccc2nc(N3CCCCC3)c(C=NNC(=S)NCc3ccccc3)cc2c1 [Compound 5l, N-Benzyl-2-((6-methyl-2-(piperidin-1-yl)quinolin-3-yl)methylene)hydrazinecarbothioamide] | 45.02 ± 0.38 µM | 35.1 ± 1.2 µM | 101 | 101 | 107 | 109 | 133 | Proliferative |  |
| Cc1ccc2nc(N3CCCCC3)c(C=NNC(=S)Nc3ccccc3F)cc2c1 [Compound 5h, N-(2-Fluorophenyl)-2-((6-methyl-2-(piperidin-1-yl)quinolin-3-yl)methylene)hydrazine carbothioamide] | 25.1 ± 0.99 µM | 31.3 ± 0.37 µM | 113 | 121 | 83.8 | 151 | 209 | Proliferative |  |
| Cc1cccc2cc(C=NNC(=S)Nc3ccccc3)c(N3CCCCC3)nc12 [Compound 6b, 2-((8-Methyl-2-(piperidin-1-yl)quinolin-3-yl)methylene)-N-phenylhydrazinecarbothioamide] | 28.8 ± 0.63 µM | 25.9 ± 0.45 µM | 89.9 | 95.7 | 92.8 | 112 | 69.2 | Cytotoxic |  |
| Cc1cccc2cc(C=NNC(=S)Nc3cccc(Cl)c3)c(N3CCCCC3)nc12 [Compound 6f, N-(3-Chlorophenyl)-2-((8-methyl-2-(piperidin-1-yl)quinolin-3-yl)methylene)hydrazine carbothioamide] | < 20 µM and 11.6 µM | < 20 µM and 9.68 µM | 110 | 110 | 109 | 139 | 189 | Proliferative |  |
| N.N.[Cl][Pt][Cl] [cisplatin, reference compound] |  |  |  |  |  |  |  |  | 20 |
